Assay results: paper PMC6263107 (Journal of Enzyme Inhibition and Medicinal Chemistry, 2018)
Where “and” joins values, the source holds several entries; their conditions need not be identical. Identical values can stand only once. Like-named read-outs stand apart in the source and are kept apart here.

What was measured:
[1] = Oxygen radical absorbance capacity assay (ORAC-FL); conditions: ORAC-FL, Trolox equivalents
Description: The antioxidant activity of KTs was determined using the ORAC-FL method described by Dávalos et al.[30] using fluorescein as a fluorescent probe with minor modification. Briefly, fluorescein and antioxidant were incubated in a black 96-well microplate (Nunc) for 15 min at 37 °C. The 2,2’-azobis(amidinopropane) dihydrochloride (AAPH) was then added quickly using the built-in injector of Varioskan Flash plate reader (Thermo Scientific).
Results are expressed in the Trolox equivalents (TE) unit in relation to radical scavenging properties of Trolox.

in vitro = type: cell-based; conditions: human
Description: The culture medium was refreshed after 24 h of incubation and 100 µl of six different concentrations (1–1000 µM) of test compounds or DMSO (0.1%) were then added. The cell viability was monitored by colourimetric assay with 3-[4,5-dimethylthiazol-2-yl]-2,5-diphenyl-tetrazolium bromide (MTT).
In this sense, all new KTs were submitted to the in vitro cell viability test (MTT assay) using human hepatocellular carcinoma cell line (HepG2)[26], as the most accepted probe to evaluate hepatotoxic effects. For this experiment, six different concentrations from 1 to 1000 µM were used.

EeAChE = EeAChE (Electrophorus electricus, UniProt O42275); experiment: biochemical; conditions: mean ± SEM
Sequence of EeAChE (O42275 24-633): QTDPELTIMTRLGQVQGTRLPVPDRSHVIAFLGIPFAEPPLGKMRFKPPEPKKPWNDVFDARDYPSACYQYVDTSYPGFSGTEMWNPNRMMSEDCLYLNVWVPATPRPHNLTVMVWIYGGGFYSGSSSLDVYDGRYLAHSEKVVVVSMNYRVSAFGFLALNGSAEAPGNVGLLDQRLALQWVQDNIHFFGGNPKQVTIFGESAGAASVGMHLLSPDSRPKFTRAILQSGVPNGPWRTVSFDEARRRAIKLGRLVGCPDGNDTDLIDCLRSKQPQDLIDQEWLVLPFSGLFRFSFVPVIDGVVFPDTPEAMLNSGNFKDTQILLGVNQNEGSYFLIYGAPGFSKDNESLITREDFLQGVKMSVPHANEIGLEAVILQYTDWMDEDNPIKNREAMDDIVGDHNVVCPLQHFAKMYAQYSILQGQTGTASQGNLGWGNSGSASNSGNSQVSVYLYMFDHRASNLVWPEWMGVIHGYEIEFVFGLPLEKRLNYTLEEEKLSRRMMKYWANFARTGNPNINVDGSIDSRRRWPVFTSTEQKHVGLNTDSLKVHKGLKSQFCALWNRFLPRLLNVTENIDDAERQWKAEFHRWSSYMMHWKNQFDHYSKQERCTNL
Description: (§1) Ellman’s protocol was followed to perform the anticholinesterasic activity. Briefly, the reaction was carried out in a final volume of 3 ml of a phosphate-buffered solution (0.1 M) at pH =8.0 containing (2.625 µl, 0.35 mM) of 5,5’-dithiobis-2-nitrobenzoic acid (DTNB), 40 µl 1% w/v Bovine Albumin Serum phosphate-buffered solution (BSA), (29 µl, 0.035 U/ml) of EeAChE or (60 µl, 0.05 U/ml) of eqBuChE, and 3 µl of tested compound, which were incubated for 10 min. Then, the acetylthiocholine iodide or butyrylthiocholine was added, and the reaction was incubated for additional 15 min. The activity in absence of compound was used as control.

eqBuChE = biological target: T1, eqBuChE (Equus caballus, UniProt P81908); experiment: biochemical; conditions: for IC50: mean ± SEM; for inhibition at 10 µM: Table 2 footnote b
T1 construct: serum horse BuChE (eqBuChE); from tissue; host or cells: horse serum
T1 sequence (P81908 whole entry): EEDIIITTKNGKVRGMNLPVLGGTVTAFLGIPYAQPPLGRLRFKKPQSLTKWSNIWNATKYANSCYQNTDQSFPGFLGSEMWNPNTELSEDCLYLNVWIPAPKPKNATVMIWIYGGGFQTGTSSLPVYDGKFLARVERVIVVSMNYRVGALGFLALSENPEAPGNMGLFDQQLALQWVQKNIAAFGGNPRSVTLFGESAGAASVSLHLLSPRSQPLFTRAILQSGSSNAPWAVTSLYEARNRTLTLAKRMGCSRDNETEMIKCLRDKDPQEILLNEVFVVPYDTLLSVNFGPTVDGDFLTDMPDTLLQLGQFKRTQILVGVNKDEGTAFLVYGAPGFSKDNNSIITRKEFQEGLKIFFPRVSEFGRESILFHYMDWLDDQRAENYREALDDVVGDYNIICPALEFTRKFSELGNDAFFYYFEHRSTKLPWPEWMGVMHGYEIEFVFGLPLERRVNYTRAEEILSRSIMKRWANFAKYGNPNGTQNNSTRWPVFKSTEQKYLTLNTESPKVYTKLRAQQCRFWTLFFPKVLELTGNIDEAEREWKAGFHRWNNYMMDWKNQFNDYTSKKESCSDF
Description: as §1

hAChE = biological target: T2, hAChE (Homo sapiens, UniProt P22303); experiment: biochemical
T2 construct: 10 µl of cholinesterase obtained from human erythrocyte hemolyzate, out of blood samples; from tissue; host or cells: human erythrocyte hemolysate from blood samples
T2 sequence (P22303 32-617 isoform P22303-2 limits assumed): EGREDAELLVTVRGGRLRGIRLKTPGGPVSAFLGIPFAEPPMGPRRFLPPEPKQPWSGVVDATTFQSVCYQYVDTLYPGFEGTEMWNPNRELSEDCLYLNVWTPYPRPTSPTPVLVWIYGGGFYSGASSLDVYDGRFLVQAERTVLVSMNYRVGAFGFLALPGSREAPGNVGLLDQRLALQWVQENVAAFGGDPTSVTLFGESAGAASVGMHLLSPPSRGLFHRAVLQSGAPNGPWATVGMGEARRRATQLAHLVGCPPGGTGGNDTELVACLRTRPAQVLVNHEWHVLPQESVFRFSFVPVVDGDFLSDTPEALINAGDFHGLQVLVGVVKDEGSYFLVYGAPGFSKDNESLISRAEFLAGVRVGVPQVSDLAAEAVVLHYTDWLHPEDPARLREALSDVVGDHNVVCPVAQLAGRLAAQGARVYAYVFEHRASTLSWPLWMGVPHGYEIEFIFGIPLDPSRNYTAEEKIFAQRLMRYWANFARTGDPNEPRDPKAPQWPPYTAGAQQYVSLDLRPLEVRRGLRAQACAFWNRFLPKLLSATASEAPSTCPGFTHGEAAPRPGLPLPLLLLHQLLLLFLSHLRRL
Description: This blend was preincubated for 5 min and 20 µl of 0.01 M substrate (ATCh or BTCh) was added to initiate the reaction. […] The IC50 values are expressed as a mean ± SEM.
Next, as planned at the beginning of the project, the analysis of the antioxidant capacity of KT 2a–d, 2f–h, and 2l was carried out.

SH-SY5Y cells [2] = experiment: Neuroprotection against oligomycin/rotenone-induced cell death (MTT); type: cell-based, human; conditions: O 10 µM / R 30 µM
Description: (§2) SH-SY5Y cell culture and treatment with compounds 2b–d and 2f. The cultures of human SH-SY5Y neuroblastoma cells kept under a CO2/air (5%/95%) humidified atmosphere at 37 °C for 24 h were treated with 100 µl of the test compounds or DMSO (0.1%) in DMEM/F12 (1:1) medium supplemented with 1% fetal bovine serum, 1X non-essential amino acids, 100 units/ml penicillin and 10 mg/ml streptomycin. Treatment medium was renewed every day for up to 48 h of treatment. MTT assay was then performed.
(§3) SH-SY5Y cells were seeded in 96-well culture plates at a density of 8 × 10^4 cells per well in DMEM/F12 (1:1) medium supplemented with 10% fetal bovine serum, 1X non-essential amino acids, 100 units/mL penicillin and 10 mg/mL streptomycin (Dutscher, France). After 24 h of incubation, the cultures were treated with 100 µl of the test compounds or DMSO (0.1%) in the same medium. Following 24 h, the cells were co-incubated with oligomycin A (10 µM)/rotenone (30 µM) (Sigma, France) or Aβ 1–40 (30 µM) with or without the tested compounds 2b–d and 2f at nontoxic concentrations against cells for an additional period of 24 h. MTT assay was then performed to determine the % of cell viability.
(§4) The ability to prevent the human neuroblastoma cell line SH-SY5Y cell death induced by toxic insults such as Αβ 1–40, implicated in ROS production and apoptosis-related signalling pathways, and oligomycin/rotenone (O/R)[39], was then assayed to determine the neuroprotective capacity of the four less hepatotoxic KTs 2b–d and 2f at nontoxic concentration against SH-SY5Y 3 and 10 µM, using melatonin and KA as reference molecules. For the evaluation of the neuroprotective effect, the cytotoxicity of O/R (10 µM/30 µM) on SH-SY5Y cell viability was determined as well as the toxicity of the selected KTs 2b–d and 2f at.

SH-SY5Y cells [3] = experiment: Neuroprotection against Aβ1–40 peptide-induced cell death (MTT); type: cell-based, human; conditions: Aβ 1–40 30 µM
Description: as §2, §3, §4

[4] = HepG2 cells, 1 µM, percent of cell viability vs DMSO-treated control, read-out: HepG2 cell viability
[5] = HepG2 cells, 3 µM, percent of cell viability vs DMSO-treated control, read-out: HepG2 cell viability
[6] = HepG2 cells, 10 µM, percent of cell viability vs DMSO-treated control, read-out: HepG2 cell viability
[7] = HepG2 cells, 30 µM, percent of cell viability vs DMSO-treated control, read-out: HepG2 cell viability
[8] = HepG2 cells, 100 µM, percent of cell viability vs DMSO-treated control, read-out: HepG2 cell viability
[9] = HepG2 cells, 300 µM, percent of cell viability vs DMSO-treated control, read-out: HepG2 cell viability
[10] = HepG2 cells, 1000 µM, percent of cell viability vs DMSO-treated control, read-out: HepG2 cell viability

SMILES | ORAC [1] | viability at 1 µM (in vitro; [4]) [%] | viability at 3 µM (in vitro; [5]) [%] | viability at 10 µM (in vitro; [6]) [%] | viability at 30 µM (in vitro; [7]) [%] | viability at 100 µM (in vitro; [8]) [%] | viability at 300 µM (in vitro; [9]) [%] | viability at 1000 µM (in vitro; [10]) [%] | IC50 (EeAChE) [µM] | IC50 (eqBuChE) [µM] | also measured
COc1cc(/C=C/C(=O)O)ccc1O [FA, ferulic acid, reference compound] | 3.74±0.22 TE and 3.74 TE |  |  |  |  |  |  |  |  |  | 
Nc1c2c(nc3c1C(c1ccccc1)c1oc(CO)cc(=O)c1O3)CCCC2 (stereo not drawn) [KT2a] | 2.58±0.22 TE and 2.58 TE | 96.8 ± 1 | 94.9 ± 2.9 | 99.3 ± 1.7 | 105 ± 5.3 | 108 ± 5 | 95 ± 3.4 | 50.3 ± 5.7 | 3.3 ± 0.09 | 12.15 ± 0.09 | inhibition at 10 µM (hAChE; at 10 μM, Table 2 footnote b): < 50%
COc1ccccc1C1c2oc(CO)cc(=O)c2Oc2nc3c(c(N)c21)CCCC3 (stereo not drawn) [KT2c] | 6.05±0.41 TE and 6.05 TE | 94.7 ± 2.4 | 103 ± 2.8 | 99 ± 1.1 | 98.2 ± 2.2 | 96.1 ± 1.5 | 88.5 ± 7.1 | 70.7 ± 7.7 | 2.39 ± 0.02 |  | O/R (%) neuroprotection (SH-SY5Y cells [2]; compound 3 µM): 12.18 ± 0.08%; O/R (%) neuroprotection (SH-SY5Y cells [2]; compound 10 µM): 16.56 ± 0.02%; Aβ1–40 (%) neuroprotection (SH-SY5Y cells [3]; compound 3 µM): np; Aβ1–40 (%) neuroprotection (SH-SY5Y cells [3]; compound 10 µM): np; inhibition at 10 µM (eqBuChE): < 50%; inhibition at 10 µM (hAChE; at 10µM, Table 1S footnote c): < 50%
COc1ccc(C2c3oc(CO)cc(=O)c3Oc3nc4c(c(N)c32)CCCC4)cc1 (stereo not drawn) [KT2e] | 4.46±0.27 TE | 95.5 ± 5.5 | 96.1 ± 7.1 | 95.9 ± 5.6 | 98.3 ± 3.8 | 86.1 ± 3.8 | 70.9 ± 4.5 | 41.7 ± 3 | 1.14 ± 0.02 | 7.57 ± 0.13 | 
Nc1c2c(nc3c1C(c1cccc(F)c1)c1oc(CO)cc(=O)c1O3)CCCC2 (stereo not drawn) [KT2g] | 4.34±0.17 TE | 101 ± 7.1 | 96.5 ± 7.4 | 99.1 ± 3.8 | 109 ± 6.1 | 103 ± 6.4 | 90.5 ± 9.6 | 62.6 ± 9.7 | 2.14 ± 0.12 | 4.54 ± 0.2 | 
Nc1c2c(nc3c1C(c1ccc(F)cc1)c1oc(CO)cc(=O)c1O3)CCCC2 (stereo not drawn) [KT2h] | 4.69±0.18 TE | 97.4 ± 2.3 | 95.9 ± 3.8 | 100 ± 1.5 | 101.4 ± 0.6 | 102 ± 1.8 | 87.2 ± 6.7 | 55.3 ± 6 | 3.44 ± 0.04 |  | inhibition at 10 µM (eqBuChE): < 50%
Nc1c2c(nc3c1C(c1ccccc1Cl)c1oc(CO)cc(=O)c1O3)CCCC2 (stereo not drawn) [KT2i] | 4.84±0.06 TE | 98.6 ± 1.4 | 100 ± 1.9 | 99.4 ± 1.2 | 105 ± 2.6 | 95.2 ± 4.7 | 64.4 ± 6.3 | 23.1 ± 6 | 0.76 ± 0.09 | 8.54 ± 0.12 | 
Nc1c2c(nc3c1C(c1cccc(Cl)c1)c1oc(CO)cc(=O)c1O3)CCCC2 (stereo not drawn) [KT2j] | 4.67±0.31 TE | 97.6 ± 2 | 101 ± 5.4 | 105 ± 5.5 | 99.6 ± 2.4 | 102 ± 6.9 | 52.7 ± 8.3 | 14.5 ± 6.4 | 0.82 ± 0.05 | 4.19 ± 0.11 | 
Nc1c2c(nc3c1C(c1cccc(Br)c1)c1oc(CO)cc(=O)c1O3)CCCC2 (stereo not drawn) [KT2k] | 2.61±0.11 TE | 101 ± 4.8 | 104 ± 8.9 | 94.9 ± 2.6 | 95.8 ± 2.5 | 101 ± 3.1 | 60.1 ± 10.4 | 37.2 ± 5.9 | 0.74 ± 0.08 | 3.9 ± 0.09 | 
Nc1c2c(nc3c1C(c1c(Cl)cccc1Cl)c1oc(CO)cc(=O)c1O3)CCCC2 (stereo not drawn) [KT2l] | 6.14±0.40 TE and 6.14 TE | 99.9 ± 2.7 | 102 ± 2.3 | 102 ± 2.6 | 99.9 ± 3.2 | 88.9 ± 8 | 68.3 ± 9.3 | 50.5 ± 7.5 | 2.12 ± 0.09 |  | inhibition at 10 µM (eqBuChE): < 50%
Nc1c2c(nc3ccccc13)CCCC2 [Tacrine, tacrine, reference compound] | 0.2 ± 0.1 TE |  |  |  |  |  |  |  |  |  | viability at 1 µM (in vitro): 112 ± 4%; viability at 3 µM (in vitro): 114 ± 4.8%; viability at 10 µM (in vitro): 108 ± 3.4%; viability at 30 µM (in vitro): 110 ± 4.2%; viability at 100 µM (in vitro): 102 ± 2.4%; viability at 300 µM (in vitro): 42.4 ± 2%; viability at 1000 µM (in vitro): 10.9 ± 2%
